Measurements reported in patent US20250208137A1, “COMPOUNDS FOR THE DETECTION AND INHIBITION OF COAGULATION PROTEASES” (Politechnika Wroclawska, priority 2022, published 2025).
Starred links: 1 amine or outer side, 2 acyl side, 3 side chain; linkers in the order of their positions; H or OH if unused. Non-standard residues stand in square brackets, D forms with d. Primed or numbered codes have the meaning given here. *: point of attachment. Tyr(2,6Cl2-Z) = 2,6-dichlorobenzyl-L-tyrosine, O=C([C@H](Cc1ccc(OCc2c(Cl)cccc2Cl)cc1)N[*:1])[*:2]; Glu(Bzl) = L-glutamic acid benzyl ester, O=C(CC[C@H](N[*:1])C(=O)[*:2])OCc1ccccc1; diphenyl phosphonate = C-terminal diphenyl phosphonate (Arg^P(OPh)2); BODIPY(FL) = CC1=CC(C)=[N+]2C1=Cc1ccc(CCC(=O)*)n1[B-]2(F)F; 1Nal = N[C@@H](Cc1cccc2ccccc12)C(=O)O; ACC = NC(=O)Cc1cc(=O)oc2cc(N*)ccc12; Igl = N[C@H](C(=O)O)C1Cc2ccccc2C1; hArg = N=C(N)NCCCC[C@H](N)C(=O)O; Agp = N=C(N)NC[C@H](N)C(=O)O; PEG4′ = PEG linker, 4 units; Nle = CCCC[C@H](N)C(=O)O; Dab = NCC[C@H](N)C(=O)O; Cbz = O=C(OCc1ccccc1)*; Cy3 = Cy3 fluorophore; Ahx = NCCCCCC(=O)O

Key:
Format in all cases: biochemical
[1] = biological target: T1, APC (Homo sapiens, UniProt P04070); assay: Inhibition kinetics (kobs/I) under pseudo first-order conditions, APC; details: 10 nM APC, substrate 154 μM SMA5, pH 7.4, 37° C.
Experimental: (§1) The Kobs/l parameters towards APC, fIIa, fXa, and fXIa were measured under pseudo first-order conditions (Table 1). The assay buffer contained 20 mM Tris-base, 150 mM NaCl, 5 mM CaCl2), pH 7.4. Each ABP or inhibitor was serially diluted until the seventh well to obtain the concentrations ranging from 308 nM to 100 µM, depending on the ABP/inhibitor used. The assay conditions were as follows: 20 μL of selected substrate (154 μM SMA5 for APC, 100 μM SMA4 for fIIa, 50 μM SMII18 for fXa, and 100 μM SMX1 for fXIa) was added into the wells containing 20 μL of seven different ABP/inhibitor concentrations. Next, 60 μL of APC, fIIa, fXa, or fXIa (at the concentration of 10 nM) preincubated for 15 min at 37° C. was added, and the fluorescence increase over time was measured (λex=355 nm, λem=460 nm) for 30 min. The Kobs/l values were calculated using GraphPad Prism and Microsoft Excel software as described previously.

[2] = biological target: T1, APC; assay: Screen of APC tetrapeptide fluorogenic substrates; details: for activity and selectivity for APC in the substrate screen: out of substrates SMA1-SMA26
Experimental: (§2) To minimize potential cross reactivity, a detailed kinetic analysis of the four APC-selective substrates was performed against the other proteases.

[3] = biological target: fXIa (Homo sapiens, UniProt P03951); assay: Inhibition kinetics (kobs/I) under pseudo first-order conditions, fXIa; details: 10 nM fXIa, substrate 100 μM SMX1, pH 7.4, 37° C.
Experimental: as §1

[4] = biological target: fIIa (Homo sapiens, UniProt P00734); assay: Inhibition kinetics (kobs/I) under pseudo first-order conditions, fIIa; details: 10 nM fIIa, substrate 100 μM SMA4, pH 7.4, 37° C.
Experimental: as §1

[5] = biological target: T1, APC; assay: Kinetic parameters (kcat/KM) of fluorogenic substrates, APC; details: APC versus other coagulation factors
Experimental: The Kcat/KM parameters towards APC, thrombin and fXa were measured using the procedure described in Modrzycka et al. Chemical Science, 2022, 13, 6813-6829.

[6] = test system: other coagulation factors; assay: Substrate hydrolysis by other coagulation factors
Experimental: as §2

[7] = biological target: fXa (Homo sapiens, UniProt P00742); assay: Inhibition kinetics (kobs/I) under pseudo first-order conditions, fXa; details: 10 nM fXa, substrate 50 μM SMII18, pH 7.4, 37° C.
Experimental: as §1

T1 sequence (P04070 212-461 limits assumed): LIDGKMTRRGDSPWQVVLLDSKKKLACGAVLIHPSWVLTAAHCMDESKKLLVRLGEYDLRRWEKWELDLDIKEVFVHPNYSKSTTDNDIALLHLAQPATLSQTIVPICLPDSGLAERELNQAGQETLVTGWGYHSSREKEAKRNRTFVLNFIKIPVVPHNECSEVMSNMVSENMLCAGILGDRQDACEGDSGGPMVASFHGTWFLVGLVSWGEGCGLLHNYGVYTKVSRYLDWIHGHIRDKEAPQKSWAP
T1 sequence (P04070 43-197 partner limits assumed): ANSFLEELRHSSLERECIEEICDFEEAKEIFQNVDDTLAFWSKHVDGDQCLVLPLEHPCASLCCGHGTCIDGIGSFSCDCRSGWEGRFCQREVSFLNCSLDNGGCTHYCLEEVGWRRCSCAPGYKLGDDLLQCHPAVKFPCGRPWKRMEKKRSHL
fXIa, sequence (P03951 388-625 limits assumed): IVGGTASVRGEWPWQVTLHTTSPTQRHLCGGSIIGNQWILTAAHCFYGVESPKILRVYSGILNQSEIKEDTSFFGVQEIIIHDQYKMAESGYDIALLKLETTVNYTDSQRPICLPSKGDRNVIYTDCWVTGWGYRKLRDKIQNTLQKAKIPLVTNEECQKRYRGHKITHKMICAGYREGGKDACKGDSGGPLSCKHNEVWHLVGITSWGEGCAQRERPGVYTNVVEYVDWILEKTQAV
fXIa, sequence (P03951 19-387 partner limits assumed): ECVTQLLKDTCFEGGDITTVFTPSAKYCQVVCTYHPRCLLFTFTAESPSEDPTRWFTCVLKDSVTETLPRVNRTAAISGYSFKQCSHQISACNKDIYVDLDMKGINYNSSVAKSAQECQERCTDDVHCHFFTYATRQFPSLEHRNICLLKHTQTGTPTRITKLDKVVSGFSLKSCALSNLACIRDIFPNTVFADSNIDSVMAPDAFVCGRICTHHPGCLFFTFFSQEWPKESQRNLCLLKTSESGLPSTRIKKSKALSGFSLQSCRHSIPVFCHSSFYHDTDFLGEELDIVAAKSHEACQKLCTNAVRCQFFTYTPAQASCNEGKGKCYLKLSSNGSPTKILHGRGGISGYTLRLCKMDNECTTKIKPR
fXa, sequence (P00742 235-488 limits assumed): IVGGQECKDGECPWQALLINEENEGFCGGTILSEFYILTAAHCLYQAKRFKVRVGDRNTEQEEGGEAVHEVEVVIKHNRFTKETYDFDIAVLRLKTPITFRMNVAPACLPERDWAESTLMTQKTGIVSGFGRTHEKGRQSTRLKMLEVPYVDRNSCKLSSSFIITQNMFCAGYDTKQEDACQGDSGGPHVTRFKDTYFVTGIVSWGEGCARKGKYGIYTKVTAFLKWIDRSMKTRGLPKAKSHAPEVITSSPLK
fXa, sequence (P00742 41-179 partner limits assumed): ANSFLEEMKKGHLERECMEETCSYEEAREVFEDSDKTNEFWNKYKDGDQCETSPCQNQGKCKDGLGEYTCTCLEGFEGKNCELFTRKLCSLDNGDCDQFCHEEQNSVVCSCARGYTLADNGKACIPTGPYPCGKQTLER

Ac-Lys-Dab(Z)-Lys-Arg^P(OPh)2 [I-SMA17]
kobs/I APC [1]: 1,980 ± 20 M^−1s^−1

Ac-K[Dab](Cbz)[Igl]R-{ACC} [SMA 5]
activity and selectivity for APC in the substrate screen [2]: showed the most activity and selectivity for APC | cleavage efficiency compared to the best natural substrate (SMA54) ([2]; relative to SMA54): approximately 50 fold

Cy5-6-Ahx-Lys-Dab(Z)-Lys-Arg^P(OPh)2 [P-SMA172]
kobs/I APC [1]: 2,250 ± 170 M^−1s^−1

Ac-Tyr(2,6Cl2-Z)-Nle-Glu(Bzl)-Arg^P(OPh)2 (Ac-[Tyr(2,6Cl2-Z)][Nle][Glu(Bzl)]R-{diphenyl phosphonate}) [I-SMXI5]
kobs/I fXIa [3]: 54,700 ± 2,800 M^−1s^−1

Bodipy-PEG(4)-Tyr(2,6Cl2-Z)-Nle-Glu(Bzl)-Arg^P(OPh)2 ({BODIPY(FL)-PEG4′}-[Tyr(2,6Cl2-Z)][Nle][Glu(Bzl)]R-{diphenyl phosphonate}) [P-SMXI52]
kobs/I fXIa [3]: 3,120 ± 100 M^−1s^−1

Cy7-6-Ahx-hCha-Cys(MeBzl)-Pip-Arg^P(OPh)2 [P-SMII222]
kobs/I fIIa [4]: 3,500 ± 300 M^−1s^−1

Ac-K[Dab](Cbz)KR-{ACC} [SMA 17]
Kcat/KM selectivity ratio [5]: very high | hydrolysis when tested with other coagulation factors [6]: almost nondetectable | activity and selectivity for APC in the substrate screen [2]: showed the most activity and selectivity for APC

Ac-Lys-Agp-Igl-Arg-ACC (Ac-K[Agp][Igl]R-{ACC}; SMILES CC(=O)N[C@@H](CCCCN)C(=O)N[C@@H](CNC(=N)N)C(=O)N[C@H](C(=O)N[C@@H](CCCNC(=N)N)C(=O)Nc1ccc2c(CC(N)=O)cc(=O)oc2c1)C1Cc2ccccc2C1) [SMA 6, fluorogenic substrate for APC]
activity and selectivity for APC in the substrate screen [2]: showed the most activity and selectivity for APC

Cy3-6-Ahx-DPro-hArg-1-Nal-Arg^P(OPh)2 ({Cy3-Ahx}-[dP][hArg][1Nal]R-{diphenyl phosphonate}) [P-SMX152]
kobs/I fXa [7]: 1,800 ± 100 M^−1s^−1

Ac-DPro-hArg-1-Nal-Arg^P(OPh)2 (Ac-[dP][hArg][1Nal]R-{diphenyl phosphonate}) [I-SMX15]
kobs/I fXa [7]: 1,200 ± 100 M^−1s^−1

Ac-hCha-Cys(MeBzl)-Pip-Arg^P(OPh)2 [I-SMII22]
kobs/I fIIa [4]: 209,000 ± 13,800 M^−1s^−1
